Data reported in US20260167659A1, “STING AGONISTS” (LIGACHEM BIOSCIENCES INC., priority 2022, published 2026).

Legend:
hSTING-WT (R232) = molecular target: T1, hSTING-WT (R232) (Homo sapiens, UniProt Q86WV6, H232R); experiment: STING activation, THP1-Dual IRF3 reporter assay, hSTING-R232 cells; format: cell-based; conditions: IRF3 luciferase reporter, 24 hours, read-out: STING activity using hSTING-R232 cells EC50
T1 construct: host or cells: THP1-Dual cells (human monocytes) with knocked-in hSTING R232
T1 sequence (Q86WV6 whole entry H232R): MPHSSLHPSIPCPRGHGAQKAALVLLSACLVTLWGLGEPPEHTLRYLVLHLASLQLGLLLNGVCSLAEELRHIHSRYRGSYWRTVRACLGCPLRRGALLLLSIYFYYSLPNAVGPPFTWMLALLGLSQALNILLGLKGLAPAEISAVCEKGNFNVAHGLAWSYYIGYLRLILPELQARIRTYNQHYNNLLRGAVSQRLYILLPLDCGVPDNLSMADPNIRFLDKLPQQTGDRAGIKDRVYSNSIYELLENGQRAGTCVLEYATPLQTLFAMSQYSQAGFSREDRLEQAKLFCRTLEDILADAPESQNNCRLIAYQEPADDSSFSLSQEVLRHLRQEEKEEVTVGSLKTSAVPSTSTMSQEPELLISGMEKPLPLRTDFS
Description: (§1) To assess potency of STING agonist compounds described herein, THP1-Dual™ Cells (NF—KB-SEAP and IRF-Lucia luciferase reporter monocytes, InvivoGen) were used. The reporter cells were knocked-in either of hSTING-WT (R232, #thpd-r232), HAQ variant (#thpd-nfis), or H232 variant (#thpd-h232). All cells were cultured at 37° C. in a humidified incubator at 5% CO2 and maintained in RPMI 1640 medium (Gibco, #22400097) supplemented with 10% heat-inactivated FBS and 1×Pen-Strep (Gibco, #15140122). To measure STING agonist-mediated IRF3 activity, the cells (9.0×10^4 cells per well) were seeded in a flat-bottomed 96-well plate. The next day, the cells were treated with compounds in a serial dilution for 24 hours. Subsequently, 20 μL of the cell culture supernatant and 50 μL of the QUANTI-Luc™ reagent (InvivoGen, #rep-qlc) were mixed in a 96-well white plate and then, luciferase activity was measured using an EnVision Xcite multilabel reader. The data were analyzed using Prism8 software (4-parameter).
(§2) The potency of STING agonist compounds was evaluated by the activation of Type I Interferon pathway using THP-1 IRF3 reporter assay.

human STING = molecular target: T2, human STING (Homo sapiens, UniProt Q86WV6, H232R); experiment: Direct STING binding, HUMAN STING WT BINDING KIT (Cisbio); conditions: direct binding to human STING WT protein in vitro; read-out: Binding potency EC50
T2 construct: purchased Cisbio 64BDSTGPEG
T2 sequence (Q86WV6 whole entry H232R): as above
Text: Additionally, for analysis of direct binding potency of STING agonist compounds described herein to human STING, HUMAN STING WT BINDING KIT (Cisbio, #64BDSTGPEG) was used according to the manufacture's instruction.

hSTING H232 variant = molecular target: T3, hSTING H232 variant (Homo sapiens, UniProt Q86WV6); experiment: STING activation, THP1-Dual IRF3 reporter assay, hSTING-H232 cells; format: cell-based; conditions: IRF3 luciferase reporter, 24 hours, read-out: STING activity using hSTING-H232 cells, H232 EC50
T3 construct: host or cells: THP1-Dual cells (human monocytes) with knocked-in hSTING H232
Description: as §1, §2

hSTING HAQ variant = molecular target: T4, hSTING HAQ variant (Homo sapiens, UniProt Q86WV6, G230A/H232R/R293Q/R71H); experiment: STING activation, THP1-Dual IRF3 reporter assay, hSTING-HAQ cells; format: cell-based; conditions: IRF3 luciferase reporter, 24 hours, read-out: STING activity using hSTING-HAQ cells, HAQ EC50
T4 construct: host or cells: THP1-Dual cells (human monocytes)
T4 sequence (Q86WV6 whole entry R71H/G230A/H232R/R293Q): as the sequence (Q86WV6 whole entry H232R) above, with R71H, G230A, R293Q counted along it
Description: as §1, §2

[1] = Normal cell cytotoxicity in PBMCs, CellTiter-Glo; format: cell-based; conditions: human, read-out: In vitro cell cytotoxicity in PBMCs CC50
Description: PBMCs were also purchased from […]™ (#700025.2). The cells (8.0×10^4 cells per well) were seeded in a flat-bottomed 96-well plate in RPMI 1640 medium (Gibco, #22400097) with 10% heat-inactivated FBS and 1× Antibiotic-Antimycotic (Gibco, #15240062) and rested for 24 hours at 37° C. […] After 72 hours, the cell viability was measured using CellTiter-Glo Luminescent Cell Viability Assay (Promega, #G7573) according to the manufacture's instruction. The signal was detected using an EnVision Xcite multilabel reader and data were analyzed using GraphPad Prism 8 software.
To verify the effect of the STING agonist compounds in normal cell cytotoxicity, the PBMCs were treated with the STING agonist compounds for 3 days and measured the percentage of cell death.

SMILES | EC50 (hSTING-WT (R232)) | EC50 (human STING) | further results
CCn1nc(C)cc1C(=O)Nc1nc2cc(C(N)=O)cc(OC)c2n1C/C=C/Cn1c(NC(=O)c2cc(C)nn2CC)nc2cc(C(N)=O)cc(OC/C=C/Cn3cc(NCCC(=O)OC)cn3)c21 [Compound 174] | 44.4 nM | – | –
CCn1nc(C)cc1C(=O)Nc1nc2cc(C(N)=O)cc(OC)c2n1C/C=C/Cn1c(NC(=O)c2cc(C)nn2CC)nc2cc(C(N)=O)cc(OCCc3ccc(NC(=O)OCc4ccc(O[C@@H]5O[C@H](C(=O)O)[C@@H](O)[C@H](O)[C@H]5O)c(C(=O)NCCOC)c4)cc3)c21 [Compound 239] | 4.46 nM | – | –
CCn1nc(C)cc1C(=O)Nc1nc2cc(C(N)=O)cc(OC)c2n1C/C=C/Cn1c(NC(=O)c2cc(C)nn2CC)nc2cc(C(N)=O)cc(OCCc3ccc(NC(=O)OCc4ccc(O[C@@H]5O[C@H](C(=O)O)[C@@H](O)[C@H](O)[C@H]5O)c(C(=O)NCCOCCOCCN(C)C)c4)cc3)c21 [Compound 262] | 6.78 nM | – | –
CCn1nc(C)cc1C(=O)Nc1nc2cc(C(N)=O)cc(OC)c2n1C/C=C/Cn1c(NC(=O)c2cc(C)nn2CC)nc2cc(C(N)=O)cc(OC/C=C/Cn3cc(NC(=O)OCc4ccc(O[C@@H]5O[C@H](C(=O)O)[C@@H](O)[C@H](O)[C@H]5O)c(C(=O)NCCOC)c4)cn3)c21 [Compound 272] | 18.8 nM | – | –
CCn1nc(C)cc1C(=O)Nc1nc2cc(C(N)=O)cc(OC)c2n1C/C=C/Cn1c(NC(=O)c2cc(C)nn2CC)nc2cc(C(N)=O)cc(OC/C=C/Cn3cc(NC(=O)OCc4ccc(O[C@@H]5O[C@H](C(=O)O)[C@@H](O)[C@H](O)[C@H]5O)c(C(=O)NCCOCCOCCOCCOCCOCC(=O)O)c4)cn3)c21 [Compound 285] | 33.5 nM | 0.3 nM | –
CCn1nc(C)cc1C(=O)Nc1nc2cc(C(N)=O)cc(OC)c2n1C/C=C/Cn1c(NC(=O)c2cc(C)nn2CC)nc2cc(C(N)=O)cc(OC/C=C/Cn3cc(NC(=O)OCc4ccc(O[C@@H]5O[C@H](C(=O)O)[C@@H](O)[C@H](O)[C@H]5O)c(C(=O)NCCOCCOCCN5CCOCC5)c4)cn3)c21 [Compound 291] | 8.86 nM | 0.26 nM | –
CCn1nc(C)cc1C(=O)Nc1nc2cc(C(N)=O)cc(OC)c2n1C/C=C/Cn1c(NC(=O)c2cc(C)nn2CC)nc2cc(C(N)=O)cc(OC/C=C/Cn3cc(NC(=O)OCc4ccc(O[C@@H]5O[C@H](C(=O)O)[C@@H](O)[C@H](O)[C@H]5O)c(C(=O)O)c4)cn3)c21 [Compound 299] | 7.2 nM | 0.27 nM | –
CCn1nc(C)cc1C(=O)Nc1nc2cc(C(N)=O)cc(OC)c2n1C/C=C/Cn1c(NC(=O)c2cc(C)nn2CC)nc2cc(C(N)=O)cc(OC/C=C/Cn3cc(NC(=O)OCc4ccc(O[C@@H]5O[C@H](CO)[C@H](O)[C@H](O)[C@H]5O)c(C(=O)NCCOCCOCCO)c4)cn3)c21 [Compound 307] | 5.36 nM | 0.18 nM | –
CCn1nc(C)cc1C(=O)Nc1nc2cc(C(N)=O)cc(OC/C=C/Cn3cc(NC(=O)OCc4ccc(O[C@@H]5O[C@H](C(=O)O)[C@@H](O)[C@H](O)[C@H]5O)c(C(=O)NCCOCCOCCO)c4)cn3)c2n1C/C=C/Cn1c(NC(=O)c2cc(C)nn2CC)nc2cc(C(N)=O)cc(OCCCC(=O)O)c21 [Compound 316] | 88.2 nM | – | EC50 (hSTING H232 variant): 251 nM; EC50 (hSTING HAQ variant): 400 nM; CC50 at 72 h [1]: 207 nM
CCn1nc(C)cc1C(=O)Nc1nc2cc(C(N)=O)cc(OC)c2n1C/C=C/Cn1c(NC(=O)c2cc(C)nn2CC)nc2cc(C(N)=O)cc(OC/C=C/Cn3cc(NC(=O)OCc4ccc(O[C@@H]5O[C@H](CO)[C@H](O)[C@H](O)[C@H]5O)c(C(=O)NCCOC)c4)cn3)c21 [Compound 320] | 3.65 nM | 0.04 nM | –
CCn1nc(C)cc1C(=O)Nc1nc2cc(C(N)=O)cc(OC)c2n1C/C=C/Cn1c(NC(=O)c2cc(C)nn2CC)nc2cc(C(N)=O)cc(OC/C=C/Cn3cc(NC(=O)OCc4ccc(O[C@@H]5O[C@H](C(=O)O)[C@@H](O)[C@H](O)[C@H]5O)c(C(=O)NCCC(=O)NC(CC(=O)O)CC(=O)O)c4)cn3)c21 [Compound 328] | 80.7 nM | 0.04 nM | –
CCn1nc(C)cc1C(=O)Nc1nc2cc(C(N)=O)cc(OC)c2n1C/C=C/Cn1c(NC(=O)c2cc(C)nn2CC)nc2cc(C(N)=O)cc(OC/C=C/CN(CCCNC(=O)OCc3ccc(O[C@@H]4O[C@H](C(=O)O)[C@@H](O)[C@H](O)[C@H]4O)c(C(=O)NCCOCCOCCN4CCOCC4)c3)C(=N)N)c21 [Compound 332] | 574 nM | – | –
CCn1nc(C)cc1C(=O)Nc1nc2cc(C(N)=O)cc(OC)c2n1C/C=C/Cn1c(NC(=O)c2cc(C)nn2CC)nc2cc(C(N)=O)cc(OC/C=C/Cn3cc(NC(=O)OCc4ccc(O[C@@H]5O[C@H](CO)[C@H](O)[C@H](O)[C@H]5O)c(C(=O)NCCOCCOCCN(C)C)c4)cn3)c21 [Compound 337] | 16.2 nM | 0.19 nM | –
C#CCNC(=O)c1cc(COC(=O)Nc2cnn(C/C=C/COc3cc(C(N)=O)cc4nc(NC(=O)c5cc(C)nn5CC)n(C/C=C/Cn5c(NC(=O)c6cc(C)nn6CC)nc6cc(C(N)=O)cc(OC)c65)c34)c2)ccc1O[C@@H]1O[C@H](C(=O)OC)[C@@H](OC(C)=O)[C@H](OC(C)=O)[C@H]1OC(C)=O [Compound 347] | 10.5 nM | – | –
CCn1nc(C)cc1C(=O)Nc1nc2cc(C(N)=O)cc(OC)c2n1C/C=C/Cn1c(NC(=O)c2cc(C)nn2CC)nc2cc(C(N)=O)cc(OC/C=C/Cn3cc(NC(=O)OCc4ccc(O[C@@H]5O[C@H](C(=O)O)[C@@H](O)[C@H](O)[C@H]5O)c(C(=O)NCCCn5cc(CCOP(=O)(O)O)nn5)c4)cn3)c21 [Compound 357] | 50.4 nM | 0.14 nM | –
CCn1nc(C)cc1C(=O)Nc1nc2cc(C(N)=O)cc(OC/C=C/Cn3cc(NC(=O)OCc4ccc(O[C@@H]5O[C@H](C(=O)O)[C@@H](O)[C@H](O)[C@H]5O)c(C(=O)NCCOCCOCCN(C)C)c4)cn3)c2n1C/C=C/Cn1c(NC(=O)c2cc(C)nn2CC)nc2cc(C(N)=O)cc(OC/C=C/Cn3cc(NC(=O)OCc4ccc(O[C@@H]5O[C@H](C(=O)O)[C@@H](O)[C@H](O)[C@H]5O)c(C(=O)NCCOCCOCCN(C)C)c4)cn3)c21 [Compound 359] | 463 nM | 0.17 nM | –
CCn1nc(C)cc1C(=O)Nc1nc2cc(C(N)=O)cc(OC)c2n1C/C=C/Cn1c(NC(=O)c2cc(C)nn2CC)nc2cc(C(N)=O)cc(OC/C=C/Cn3cc(NC(=O)OCc4ccc(O[C@@H]5O[C@H](C(=O)O)[C@@H](O)[C@H](O)[C@H]5O)c(C(=O)NCCOCCOCCN=[N+]=[N-])c4)cn3)c21 [Compound 367] | 7.67 nM | – | –
CCn1nc(C)cc1C(=O)Nc1nc2cc(C(N)=O)cc(OC)c2n1C/C=C/Cn1c(NC(=O)c2cc(C)nn2CC)nc2cc(C(N)=O)cc(OC/C=C/Cn3cc(NC(=O)OCc4ccc(O[C@@H]5O[C@H](C(=O)O)[C@@H](O)[C@H](O)[C@H]5O)c(C(=O)NCCOCCOCCN)c4)cn3)c21 [Compound 372] | 54.6 nM | – | –
CCn1nc(C)cc1C(=O)Nc1nc2cc(C(N)=O)cc(OC/C=C/Cn3cc(NC(=O)OCc4ccc(OC5O[C@H](C(=O)O)[C@@H](O)[C@H](O)[C@H]5O)c(C(=O)NCCOCCOCCN(C)C)c4)cn3)c2n1C/C=C/Cn1c(NC(=O)c2cc(C)nn2CC)nc2cc(C(N)=O)cc(OCCCS(C)(=O)=NC(=O)OCc3ccc(O[C@@H]4O[C@H](C(=O)O)[C@@H](O)[C@H](O)[C@H]4O)c(C(=O)NCCOCCOCCN(C)C)c3)c21 (stereo partly drawn) [Compound 376] | 287 nM | – | –
CCn1nc(C)cc1C(=O)Nc1nc2cc(C(N)=O)cc(OC)c2n1C/C=C/Cn1c(NC(=O)c2cc(C)nn2CC)nc2cc(C(N)=O)cc(OC/C=C/CN3CCN(C(=O)OCc4ccc(O[C@@H]5O[C@H](C(=O)O)[C@@H](O)[C@H](O)[C@H]5O)c(C(=O)NCCOC)c4)CC3=O)c21 [Compound 417] | 24.6 nM | – | –
CCn1nc(C)cc1C(=O)Nc1nc2cc(C(N)=O)cc(OC)c2n1C/C=C/Cn1c(NC(=O)c2cc(C)nn2CC)nc2cc(C(N)=O)cc(OC/C=C/CN3CCCN3C(=O)OCc3ccc(O[C@@H]4O[C@H](C(=O)O)[C@@H](O)[C@H](O)[C@H]4O)c(C(=O)NCCOC)c3)c21 [Compound 419] | 38.1 nM | – | –
